Assay results taken from article PMC9090415, “Discovery of small molecule inhibitors of Plasmodium falciparum apicoplast DNA polymerase” (Journal of Enzyme Inhibition and Medicinal Chemistry, 2022).

Target: T1, bacteriophage T4 DNA polymerase (Enterobacteria phage T4, UniProt P04415)
T1 construct: made in house
T1 sequence (P04415 1-898): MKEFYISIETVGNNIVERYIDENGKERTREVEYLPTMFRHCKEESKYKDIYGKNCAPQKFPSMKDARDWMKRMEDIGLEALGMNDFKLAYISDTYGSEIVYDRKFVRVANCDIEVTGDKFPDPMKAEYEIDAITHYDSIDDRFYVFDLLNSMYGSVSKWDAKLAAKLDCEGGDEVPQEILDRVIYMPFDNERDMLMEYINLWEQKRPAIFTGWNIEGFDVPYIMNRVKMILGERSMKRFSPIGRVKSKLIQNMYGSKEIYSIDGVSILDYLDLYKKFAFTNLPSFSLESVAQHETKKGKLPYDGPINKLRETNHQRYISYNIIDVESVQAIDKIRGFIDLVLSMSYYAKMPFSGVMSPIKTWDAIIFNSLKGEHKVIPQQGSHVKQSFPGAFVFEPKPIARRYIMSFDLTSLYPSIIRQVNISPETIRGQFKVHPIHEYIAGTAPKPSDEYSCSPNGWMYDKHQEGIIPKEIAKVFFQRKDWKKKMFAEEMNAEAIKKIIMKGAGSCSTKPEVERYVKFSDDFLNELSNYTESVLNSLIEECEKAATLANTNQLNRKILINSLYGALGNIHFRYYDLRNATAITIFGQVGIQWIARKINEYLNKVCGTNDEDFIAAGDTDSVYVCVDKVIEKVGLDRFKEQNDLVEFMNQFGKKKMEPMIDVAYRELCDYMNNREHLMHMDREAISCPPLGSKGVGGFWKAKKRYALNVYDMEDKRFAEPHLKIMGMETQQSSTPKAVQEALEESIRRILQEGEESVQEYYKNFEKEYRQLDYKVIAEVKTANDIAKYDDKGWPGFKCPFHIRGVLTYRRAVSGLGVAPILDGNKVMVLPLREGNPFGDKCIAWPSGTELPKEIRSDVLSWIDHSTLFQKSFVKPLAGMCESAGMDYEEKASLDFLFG
Experiment: Counter-screen against bacteriophage T4 DNA polymerase
Assay type: biochemical
Conditions: for % inhibition T4 10' 2.5 / % inhibition T4 10' 5 / % inhibition T4 10' 10 / % inhibition T4 10' 20 / % inhibition T4 10' 40 / % inhibition T4 10' 80: read at 10'; for % inhibition T4 70' 2.5 / % inhibition T4 70' 5 / % inhibition T4 70' 10 / % inhibition T4 70' 20 / % inhibition T4 70' 40 / % inhibition T4 70' 80: read at 70'; for % inhibition T4 130' 2.5 / % inhibition T4 130' 5 / % inhibition T4 130' 10 / % inhibition T4 130' 20 / % inhibition T4 130' 40 / % inhibition T4 130' 80: read at 130'; for % inhibition T4 40' 2.5 / % inhibition T4 40' 5 / % inhibition T4 40' 10 / % inhibition T4 40' 20 / % inhibition T4 40' 40 / % inhibition T4 40' 80: read at 40'; for % inhibition T4 90' 2.5 / % inhibition T4 90' 5 / % inhibition T4 90' 10 / % inhibition T4 90' 20 / % inhibition T4 90' 40 / % inhibition T4 90' 80: read at 90'; for % inhibition T4 180' 2.5 / % inhibition T4 180' 5 / % inhibition T4 180' 10 / % inhibition T4 180' 20 / % inhibition T4 180' 40 / % inhibition T4 180' 80: read at 180'
In short: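 IC50 values come from dose-response testing of each compound against T4 DNA polymerase. This B-family polymerase was purified in-house and used as the counter-screen.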

## Cn1nc(-c2nnc(-c3ccccc3F)o2)c2c1CCN(C(=O)c1ccccc1Cl)C2 [Molecule 34, Cn1nc(c2c1CCN(C2)C(=O)c1ccccc1Cl)c1nnc(o1)c1ccccc1F]
DRC-1, concentration 2.5
  % inhibition T4 10' 2.5: -0.603%
  % inhibition T4 70' 2.5: -2.57%
  % inhibition T4 130' 2.5: -4%
DRC-1, concentration 5
  % inhibition T4 10' 5: -0.853%
  % inhibition T4 70' 5: -4%
  % inhibition T4 130' 5: -4%
DRC-1, concentration 10
  % inhibition T4 10' 10: 3%
  % inhibition T4 70' 10: -2%
  % inhibition T4 130' 10: -2.33%
DRC-1, concentration 20
  % inhibition T4 10' 20: 1.06%
  % inhibition T4 70' 20: -2.24%
  % inhibition T4 130' 20: -2.59%
DRC-1, concentration 40
  % inhibition T4 10' 40: 1.22%
  % inhibition T4 70' 40: -0.925%
  % inhibition T4 130' 40: 0.922%
DRC-1, concentration 80
  % inhibition T4 10' 80: 31%
  % inhibition T4 70' 80: 28%
  % inhibition T4 130' 80: 22%
DRC-2, concentration 2.5
  % inhibition T4 10' 2.5: 0.487%
  % inhibition T4 40' 2.5: -0.945%
  % inhibition T4 90' 2.5: -0.872%
  % inhibition T4 180' 2.5: -4.68%
DRC-2, concentration 5
  % inhibition T4 10' 5: -4%
  % inhibition T4 40' 5: -3.75%
  % inhibition T4 90' 5: -3.55%
  % inhibition T4 180' 5: -7.58%
DRC-2, concentration 10
  % inhibition T4 10' 10: -3%
  % inhibition T4 40' 10: -3%
  % inhibition T4 90' 10: -2.12%
  % inhibition T4 180' 10: -5%
DRC-2, concentration 20
  % inhibition T4 10' 20: 1.3%
  % inhibition T4 40' 20: 0.863%
  % inhibition T4 90' 20: 0.601%
  % inhibition T4 180' 20: -3.78%
DRC-2, concentration 40
  % inhibition T4 10' 40: 3.35%
  % inhibition T4 40' 40: 3.24%
  % inhibition T4 90' 40: 1.62%
  % inhibition T4 180' 40: -2.41%
DRC-2, concentration 80
  % inhibition T4 10' 80: 11%
  % inhibition T4 40' 80: 12%
  % inhibition T4 90' 80: 10%
  % inhibition T4 180' 80: 6%

## CC(=O)OCC1=C(C(=O)[O-])N2C(=O)[C@@H](NC(=O)Cc3cccs3)[C@H]2SC1.[Na+] [Molecule 73, CC(=O)OCC1=C(C(=O)[O-])N2[C@H](SC1)[C@@H](C2=O)NC(=O)Cc1cccs1.[Na+]]
DRC-1, concentration 2.5
  % inhibition T4 10' 2.5: 11.7205%
  % inhibition T4 70' 2.5: 9.196%
  % inhibition T4 130' 2.5: 4.91%
DRC-1, concentration 5
  % inhibition T4 10' 5: 17.9504%
  % inhibition T4 70' 5: 11.8887%
  % inhibition T4 130' 5: 7.499%
DRC-1, concentration 10
  % inhibition T4 10' 10: 24.8784%
  % inhibition T4 70' 10: 17.9088%
  % inhibition T4 130' 10: 13.1805%
DRC-1, concentration 20
  % inhibition T4 10' 20: 32.107%
  % inhibition T4 70' 20: 22.6844%
  % inhibition T4 130' 20: 16.8593%
DRC-1, concentration 40
  % inhibition T4 10' 40: 49.9492%
  % inhibition T4 70' 40: 42.1653%
  % inhibition T4 130' 40: 38.0136%
DRC-1, concentration 80
  % inhibition T4 10' 80: 43.1529%
  % inhibition T4 70' 80: 41.199%
  % inhibition T4 130' 80: 33.8147%
DRC-2, concentration 2.5
  % inhibition T4 10' 2.5: 0.14%
  % inhibition T4 40' 2.5: 0.442%
  % inhibition T4 90' 2.5: 1.28%
  % inhibition T4 180' 2.5: 0.485%
DRC-2, concentration 5
  % inhibition T4 10' 5: 0.574%
  % inhibition T4 40' 5: 0.491%
  % inhibition T4 180' 5: -2.85%
DRC-2, concentration 10
  % inhibition T4 10' 10: 12%
  % inhibition T4 40' 10: 11%
  % inhibition T4 90' 10: 10%
  % inhibition T4 180' 10: 6.41%
DRC-2, concentration 20
  % inhibition T4 10' 20: 17%
  % inhibition T4 40' 20: 17%
  % inhibition T4 90' 20: 17%
  % inhibition T4 180' 20: 14%
DRC-2, concentration 40
  % inhibition T4 10' 40: 26%
  % inhibition T4 40' 40: 25%
  % inhibition T4 90' 40: 23%
  % inhibition T4 180' 40: 20%
DRC-2, concentration 80
  % inhibition T4 10' 80: 36%
  % inhibition T4 40' 80: 42%
  % inhibition T4 90' 80: 41%
  % inhibition T4 180' 80: 41%

## O=C(NC(C(Cl)Cl)S(=O)(=O)c1ccccc1)c1ccccc1 (centres unmarked) [KU0045239]
DRC-2, concentration 10
  % inhibition T4 10': -19%
  % inhibition T4 40': -19%
  % inhibition T4 180': -18%
DRC-2, concentration 5
  % inhibition T4 40': -21%
  % inhibition T4 90': -17%
  % inhibition T4 180': -21%
DRC-2, concentration 20
  % inhibition T4 40': -26%
  % inhibition T4 90': -18%
  % inhibition T4 180': -17%
DRC-2, concentration 40
  % inhibition T4 40': -26%
  % inhibition T4 90': -18%
DRC-2, concentration 2.5
  % inhibition T4 90': -26%

## Nc1cc(Oc2ccc(O)c(N)c2)ccc1O [KU0034728]
DRC-1, concentration 2.5
  % inhibition T4 10' 2.5: 10.6184%
  % inhibition T4 70' 2.5: 10.2077%
  % inhibition T4 130' 2.5: 10.8947%
DRC-1, concentration 5
  % inhibition T4 10' 5: 9.797%
  % inhibition T4 70' 5: 9.3179%
  % inhibition T4 130' 5: 9.975%
DRC-1, concentration 10
  % inhibition T4 10' 10: 12.6946%
  % inhibition T4 70' 10: 12.3114%
  % inhibition T4 130' 10: 11.1726%
DRC-1, concentration 20
  % inhibition T4 10' 20: 6.887%
  % inhibition T4 70' 20: 7.7965%
  % inhibition T4 130' 20: 8.154%
DRC-1, concentration 40
  % inhibition T4 10' 40: 15.6951%
  % inhibition T4 70' 40: 14.4419%
  % inhibition T4 130' 40: 14.6568%
DRC-1, concentration 80
  % inhibition T4 10' 80: 21.8837%
  % inhibition T4 70' 80: 19.0676%
  % inhibition T4 130' 80: 18.4293%
DRC-2, concentration 2.5
  % inhibition T4 10' 2.5: -8.57%
  % inhibition T4 40' 2.5: -8%
  % inhibition T4 90' 2.5: -7%
  % inhibition T4 180' 2.5: -11%
DRC-2, concentration 5
  % inhibition T4 10' 5: -11%
  % inhibition T4 40' 5: -11%
  % inhibition T4 90' 5: -9.49%
  % inhibition T4 180' 5: -15%
DRC-2, concentration 10
  % inhibition T4 10' 10: -3.21%
  % inhibition T4 40' 10: -5.5%
  % inhibition T4 90' 10: -3.47%
  % inhibition T4 180' 10: -8%
DRC-2, concentration 20
  % inhibition T4 10' 20: -7%
  % inhibition T4 40' 20: -8%
  % inhibition T4 90' 20: -7%
  % inhibition T4 180' 20: -11%
DRC-2, concentration 40
  % inhibition T4 10' 40: 3.18%
  % inhibition T4 40' 40: -2.76%
  % inhibition T4 90' 40: -4.46%
  % inhibition T4 180' 40: -7.51%
DRC-2, concentration 80
  % inhibition T4 10' 80: 12%
  % inhibition T4 40' 80: -1.54%
  % inhibition T4 90' 80: -9%
  % inhibition T4 180' 80: -14%

## Cc1ccc2c(C(=O)NCCc3cccnc3)cc(NC(=O)C(C)C)cc2n1 [KU0206096]
DRC-2, concentration 5
  % inhibition T4 10': 8%
DRC-2, concentration 10
  % inhibition T4 10': 30%
  % inhibition T4 90': 28%
DRC-2, concentration 80
  % inhibition T4 10': 35%
  % inhibition T4 180': 34%
DRC-2, concentration 2.5
  % inhibition T4 40': 8%
DRC-2, concentration 20
  % inhibition T4 40': 35%
  % inhibition T4 90': 30%
DRC-2, concentration 40
  % inhibition T4 90': 34%
  % inhibition T4 180': 28%

## O=C(NNC(=O)c1ccc(Cl)cc1)C(=O)NNC(=O)c1ccc(Cl)cc1 [Molecule 25, O=C(C(=O)NNC(=O)c1ccc(cc1)Cl)NNC(=O)c1ccc(cc1)Cl]
DRC-2, concentration 80
  % inhibition T4 10': -22%
DRC-2, concentration 5
  % inhibition T4 40': -13%
  % inhibition T4 90': -13%
  % inhibition T4 180': -17%
DRC-2, concentration 20
  % inhibition T4 40': -23%
  % inhibition T4 90': -22%
  % inhibition T4 180': -23%
DRC-2, concentration 40
  % inhibition T4 40': -17%
  % inhibition T4 180': -17%

## Cc1ccc(NC(=O)C2CCN(C(=O)c3cc4ccsc4[nH]3)CC2)c(Br)c1 [Molecule 14, O=C(C1CCN(CC1)C(=O)c1cc2c([nH]1)scc2)Nc1ccc(cc1Br)C]
DRC-2, concentration 20
  % inhibition T4 10': 5%
  % inhibition T4 40': 5%
DRC-2, concentration 40
  % inhibition T4 10': 10%
  % inhibition T4 40': 8%
  % inhibition T4 90': 6%
DRC-2, concentration 80
  % inhibition T4 10': 10%
  % inhibition T4 40': 10%
  % inhibition T4 90': 8%
